Source: patent US7378402B2, “Anti-viral nucleosides” (Roche Palo Alto LLC, priority 2004, dated 2008)

Key:
HIV = details: cited from earlier work
[1] = tested on: HCV replicon RNA (Renilla luciferase HCV replicon cells 2209-23, human hepatoma Huh7); test: Renilla luciferase HCV replicon assay; type: cell-based, hepatitis C virus (HCV); details: Huh-7, 72 h; replicon cells 2209-23, incubated three days at 37° C.; concentration reducing replicon level by 50%
[2] = monotherapy; cited from earlier work

## CCCCC(=O)O[C@@H]1[C@H](n2ccc(N)nc2=O)O[C@@](CO)(N=[N+]=[N-])[C@H]1OC(=O)CCCC
other
  melting point: 160.4 to 162.2 °C

## CC(C)C(NC(=O)OC(C)(C)C)C(=O)OC[C@@]1(N=[N+]=[N-])O[C@@H](n2ccc(N)nc2=O)[C@@H](O)[C@@H]1O (stereo partly shown)
other
  melting point: 106.9 to 107.3 °C

## CCCCCCCCCCCCCC(=O)OC[C@@]1(N=[N+]=[N-])O[C@@H](n2ccc(N)nc2=O)[C@@H](O)[C@@H]1O
other
  melting point: 110.3 to 119.3 °C

## C#CC1(CO)OC(n2ccc(N)nc2=O)C(O)C1O (stereo not shown) [Compound 12a, 4-Ethynyl-cytarabine]
HIV
  anti-HIV activity: good anti-HIV activity

## [N-]=[N+]=N[C@]1(CO)O[C@@H](n2ccc(N)nc2=O)[C@@H](O)[C@@H]1O [Compound I-1, 4-Amino-1-((2R,3S,4S,5R)-5-azido-3,4-dihydroxy-5-hydroxymethyl-tetrahydro-furan-2yl)-1H-pyrimidin-2-one]
[1]
  IC50: 220 nM

## NC(=O)c1ncn([C@@H]2O[C@H](CO)[C@@H](O)[C@H]2O)n1 [ribavirin, 1-((2R,3R,4S,5R)-3,4-Dihydroxy-5-hydroxymethyl-tetrahydro-furan-2-yl)-1H-[1,2,4]triazole-3-carboxylic acid amide]
[2]
  effect on serum levels of HCV-RNA: does not lower
  patients in whom serum amino transferase levels are reduced to normal: 40%
